Tests used:
[1] = Solubility in water; type: physicochemical
[2] = test system: pCREB; test: Jacob-induced CREB shutoff in hippocampal primary neurons expressing phosphodeficient Jacob; type: cell-based, rat; details: 2 μM OA, 20 min, neurons expressing phosphodeficient Jacob in the nucleus
Procedure: Hippocampal neuronal cultures were transfected with plasmid DNA using Lipofectamine2000 (Thermo Fisher Scientific) following the manufacturer's instructions. For LMO4 knockdown cells were expressing shRNA for 5 days; for Jacob knockdown 4 days. […]. The target sequences for LMO4 and NLS-Jacob knockdown (Spilker et al., 2016) as well as scrambled controls are indicated in key resources table. For Aβ-induced CREB shutoff experiments Aβ oligomers (Anaspec) were prepared as described previously (see previous section, (Grochowska et al., 2017)). Transfected neurons were treated with 500 nM Aβ1-42 or Aβ3 (pE)-42. Nitarsone was diluted in distilled water.

[3] = test system: GluR1; type: cell-based, rat
[4] = test system: HEK293T cells; test: Heterologous co-immunoprecipitation from HEK293T cells; type: cell-based; details: 20 nM staurosporine, 3 h
[5] = molecular target: T1, GST-LMO4 (Homo sapiens, UniProt P61968); test: Isothermal titration calorimetry (ITC); details: binding to LMO4, 25 mM Tris buffer pH 7.4, 50 mM NaCl
T1 construct: made in house; host or cells: E. coli BL21 (DE3)
T1 sequence (P61968 1-165): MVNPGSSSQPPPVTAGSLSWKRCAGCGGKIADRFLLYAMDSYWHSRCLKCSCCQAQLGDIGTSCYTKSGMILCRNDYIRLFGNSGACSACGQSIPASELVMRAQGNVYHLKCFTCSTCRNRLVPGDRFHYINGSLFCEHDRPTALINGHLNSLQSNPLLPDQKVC

CC(NCCO)c1ccc([N+](=O)[O-])cc1 (stereo not shown) [NPEAE, 2-{[1-(4-nitrophenyl)ethyl]amino}ethan-1-ol]
solubility in water [1]: soluble in water

C=C1[C@@H](O)[C@@H]2O[C@]3(CC[C@H](/C=C/[C@@H](C)[C@@H]4CC(C)=C[C@@]5(O[C@H](C[C@@](C)(O)C(=O)O)CC[C@H]5O)O4)O3)CC[C@H]2O[C@@H]1[C@@H](O)C[C@H](C)[C@H]1O[C@@]2(CCCCO2)CC[C@H]1C [OA, okadaic acid]
Jacob-induced CREB shutoff [2]: prevented Jacob-induced CREB shutoff

NC1=N[C@H](O)[C@H]2[C@H]3O[C@]4(O)O[C@@H]([C@@H](O)[C@@]2(N1)[C@@H]4O)[C@]3(O)CO [TTX, tetrodotoxin]
GluR1 surface expression [3]: induced upregulation of GluR1 surface expression

CN[C@@H]1C[C@H]2O[C@@](C)([C@@H]1OC)n1c3ccccc3c3c4c(c5c6ccccc6n2c5c31)C(=O)NC4 [staurosporine]
Jacob phosphorylation level (S180) [4]: decreases Jacob phosphorylation level (S180) | association of Jacob with CREB [4]: decreases the association of Jacob with CREB | association of Jacob with LMO4-tagRFP [4]: increases its association with LMO4-tagRFP

B1: Jacob: synapto-nuclear protein messenger; recombinant protein titrated against LMO4 in ITC (protein, listed as Homo sapiens)
chain: MGAAASRRRALRSEAMSSVAAKVRAARAFGEYLSQSHPENRNGADHLLADAYSGHDGSPEMQPAPQNKRRLSLVSNGCYEGSLSEEPSIRKPAGEGPQPRVYTISGEPALLPSPEAEAIELAVVKGRRQRHPHHHSQPLRASPGGSREDVSRPCQSWAGSRQGSKECPGCAQLAPGPTPRAFGLDQPPLPETSGRRKKLERMYSVDRVSDDIPIRTWFPKENLFSFQTATTTMQAISVFRGYAERKRRKRENDSASVIQRNFRKHLRMVGSRRVKAQTFAERRERSFSRSWSDPTPMKADTSHDSRDSSDLQSSHCTLDEAFEDLDWDTEKGLEAVACDTEGFVPPKVMLISSKVPKAEYIPTIIRRDDPSIIPILYDHEHATFEDILEEIERKLNVYHKGAKIWKMLIFCQGGPGHLYLLKNKVATFAKVEKEEDMIHFWKRLSRLMSKVNPEPNVIHIMGCYILGNPNGEKLFQNLRTLMTPYRVTFESPLELSAQGKQMIETYFDFRLYRLWKSRQHSKLLDFDDVL
Kd [5]: 370 nM

Source: patent US20250295627A1 (Leibniz-Institut Fuer Neurobiologie, priority 2022, published 2025)
